Where two headings read alike, the source gives them in different places.
Columns and labels:
mouse cortical neuron = experiment: Whole-cell patch-clamp of cortical neuron, perfusion; assay type: cell-based; details: 1 μM via perfusion
From the text: FIGS. 13A and 13B: FIG. 13A depicts the structure of TzGly. […] The measurement results were obtained by the whole-cell patch-clamp method, as known and used in the art.

[1] = system: Retzius (Rz) cells in the ganglion; experiment: Intracellular voltage recording of leech ganglion neuron with light flash uncaging; details: for neuron spiking activity on addition, before light: ˜100 μM in saline, no flash; for neuron spiking activity after light flash: pulsed Xe lamp flash
Experimental: Hirudo medicinalis has a central nerve cord with several ganglia, each one containing about 400 neurons arranged in a known pattern. (W.-R. Schlue et al., 1980, J. Exp. Biol., 82:23-34). An entire ganglion was mounted on a dish. The transmembrane potential for a single cell (a neuron) in the ganglion was recorded by inserting inside the neuron a glass micropipet with a micrometer-sized end, filled with saturated aqueous KCl that acts as a luggin bridge for an Ag/AgCl electrode. Another Ag/AgCl electrode was used as a reference. The signal was taken with an AM-System 1600 amplifier, and the entire setup was covered with a Faraday cage. A 12 bit A/D acquisition card was used to digitize the data using an ad-hoc program written in QuickBasic.
Low Ca^2+-high Mg^2+ saline solution (NaCl, 102 mM; KCl, 4 mM; CaCl2: 1 mM; and MgCl2: 10 mM; Tris base, pH 5.4 adjusted to 7.4) was perfused through the dish. […] A pulsed Xe lamp located under the dish was used to irradiate the solution. UV light was removed using a band-pass filter at 500 nm.
After impaling the cell with an electrode, many experiments were performed on the same cell to ensure reproducibility. […] 300 seconds later, at 5500 s, a light flash was directed to the ganglion.

[2] = Cyclic voltammetry, redox potential; assay type: physicochemical; details: in water, versus Ag/AgCl
Experimental: (§1) UV-vis spectra in water were obtained with an HP 8453 diode array spectrophotometer. RMN ^1H spectra were obtained using a Bruker 500 MHz equipment. CV measurements were performed with a PAR 273A potentiostat. Irradiation was effected by means of a pulsed Xe lamp, (pulse energy ˜0.5 J), with a low-pass filter at 480 nm. Irradiation using a 473 nm DPSS laser gave similar results.
(§2) (See, e.g., E. S. Dodsworth et al., 1986, Chem. Phys. Lett., 124:152-158). The photoactivity of these compounds has been explained in terms of a reaction pathway that involves the transition between the MLCT state to a lower-energy d-d state, which promotes ligand release. There is a direct correspondence between the energy of the MLCT transition and the quantum yield of the photoreaction. For [Ru(bpy)2(4AP)CH3CN]^2+, the photoreaction yield is about φPR=0.4. Since [Ru(bpy)2(4AP)2]Cl2 presents a red-shifted band, a lower photoreaction yield is expected. An estimate based on early experiments leads to an estimate of φPR≅0.02 at 473 nm.
Its aqueous solutions present a strong metal to ligand charge-transfer band (MLCT band) at 450 nm, characteristic of this family of Ru polypyridines.

[3] = Dark stability and recombination followed by UV-vis spectra; assay type: physicochemical
From the text: The photoproducts after exposure to light were Ru(bpy)2(4AP)(H2O) and free 4AP.
(§3) Several ruthenium polypyridyl complexes present this behavior. (D. V. Pinnick et al., 1984, Inorg. Chem., 23:1440-1445).

[4] = Photorelease of 4AP from [Ru(bpy)2(4AP)2]Cl2 under visible light (UV-vis, NMR); assay type: physicochemical
Experimental: as §1, §3
Although at pH 7 the spectrum of the irradiated complex is very similar to that of the original complex, a diminished shoulder at 470 nm becomes evident. To determine the nature of the photoreaction, NMR spectra were taken before and after irradiation with visible light. […] After irradiation, this signal decreased, and two new signals appeared at lower fields: one corresponding to the free ligand (m3), and the other corresponding to the aquo-4AP complex (m2), indicating photorelease of the 4AP. These two latter signals integrated for 0.30 and 0.27 of the initial signal, which corresponds to a photoreaction of 60%.
as §2

E. coli culture = experiment: Light-patterned uncaging of MTG in bacterial culture with X-Gal; assay type: cell-based; details: 1 mM complex, 0.02% X-Gal, 20 minutes irradiation, then 37° C.
Experimental: A handheld projector 3M (110 MPro) is used to irradiate for 20 minutes an E. coli culture growing in a piece of 7 cm diameter whatman filter paper soaked in LB medium containing 1 mM [(Ru(bpy)2P(Me)3(MTG)]^+2 and 0.02% X-Gal (FIG. 24A). After image projection, the culture is left at 37° C. for until blue precipitate is noticed (˜40 minutes, FIG. 24B).

[5] = Photolysis of [Ru(bpy)2(PMe3)(MTG)]+2, UV-Vis; assay type: physicochemical
Experimental: A total of 67 mg of [Ru(bpy)2(PMe3)Cl]PF6 were suspended in 4 ml acetone and 2 ml water, and were heated and stirred at 80° C. until dissolution. Evaporated acetone was gradually replaced with water or acetone to keep total volume constant but avoiding precipitation. All the following was performed under dim red light. 100 mg of D(+)methylthiogalactose were added and the mixture was kept at 80° C. for 5 hours: The reaction progress was followed by UV-Vis spectrophotometry until the aquo complex was no longer detectable. The solution was cooled in ice-cold water and saturated [BPh4]^− as sodium salt was added carefully. The pale yellow precipitate was washed six times in ice cold water by resuspending the precipitate and centrifugation. NMR spectra were taken in a 500 MHz Bruker Avance II spectrometer. Photolysis of the NMR sample was performed inside the unopened NMR tube, by means of a custom-built NMR photolysis device based in 10 high current (100 mA) LEDs with emission wavelength centered at 520+/−20 nm.
The complex has a molar absorptivity coefficient of ˜3100 and a maximum absorption wavelength in the visible range at 422 nm. Photolysis quantum yield is 0.3. Successive photolysis products of the same sample are shown in black (FIG. 21).

[6] = Fluorescence emission quantum yield before and after irradiation; assay type: physicochemical
From the text: All reagents were purchased from Sigma-Aldrich and used as received. Ru(bpy)2Cl2 was synthesized according to the literature using water as solvent (Viala, C.; Coudret, C. Inorg. Chim. Acta 2006, 359: 984-989). UV-vis spectra were taken with a HP8453 diode-array spectrometer. NMR spectra were obtained using a 500 MHz Bruker AM-500. Fluorescence emission measurements were made with a PTI Quantamaster spectrofluorometer, corrected for the instruments response function. Rhodamine B was used as fluorescence standard of emission quantum yield (φ=0.31 in aqueous solutions). Quantum yield of the complex was obtained directly from the ratio of the spectral areas, which present the same shape.
FIG. 20 depicts the emission spectra of the complex during irradiation. The maximum and the shape of the initial emission spectrum is the same as that of the free ligand RhodB-MAPN but the emission quantum yield is much lower, around pt=0.04. Quantum yields are easily calculated integrating the spectral areas. After irradiation with a 473 nm laser, RhodB-MAPN is released and the solution increases its fluorescence up to 6 fold, to φt=0.24.

[7] = Photouncaging quantum yield; assay type: physicochemical
Experimental: The photouncaging quantum yield measurements were performed with a Nd:YAG diode pumped solid state laser doubled to 473 nm with a constant power of 6.3 mW. The light was collimated and sent through an optical path of 1 cm into a fluorescence glass cuvette, with stirring. Total irradiation energy was measured using a Coherent Fieldmaster FM light meter with a visible light photodiode model SR45.
The quantum yield of rhodamine photorelease was calculated after the analysis of fluorescence emission data during photouncaging at 473 nm. A complete spectrum was obtained once per second. Absorption of light by the complex [Ru(bpy)2(RhodB-MAPN)Cl]^+ yields the aquo complex [Ru(bpy)2(H2O)Cl]^+ and free RhodB-MAPN. In each irradiation period the amount of aquo complex and free RhodB-MAPN generated is given by the following: δn=δtIφPU(1−10^−AbsT)AbsR/AbsT where δt is the irradiation period, I the light intensity in moles of photons per second, φPU is the quantum yield of photouncaging, AbsR is the absorbance of the photoactive species [Ru(bpy)2(RhodB-MAPN)Cl]^+ at 473 nm and AbsT is the total absorbance of the irradiated solution. By means of finite element calculation of the former equation a photouncaging quantum yield of φPU=0.12 at 25° C. was calculated. This value is in good agreement with the reported quantum yields for similar complexes. […]

[8] = Photorelease of TzGly from [Ru(bpy)2(TzGly)(py)]Cl2; assay type: physicochemical; details: 470 nm

For `NC(C(=O)O)c1nnn[nH]1` (racemic) [TzGly, (RS)-(tetrazol-5-yl)glycine], the effect on neuron (mouse cortical neuron) was “spiking”.
In the case of `[Cl][Ru][Cl].c1ccc(-c2ccccn2)nc1.c1ccc(-c2ccccn2)nc1.c1ccc(-c2ccccn2)nc1` [Ru(bpy)3Cl2, reference compound], the “neuron spiking activity on addition, before light” value [1] is reported as “without significant changes in activity” and the “neuron spiking activity after light flash” value ([1]; ˜100 μM) is reported as “after a short time the activity decreased to the basal level”.
For `Nc1ccncc1.Nc1ccncc1.[Cl-].[Cl-].[Ru+2].c1ccc(-c2ccccn2)nc1.c1ccc(-c2ccccn2)nc1` [[Ru(bpy)2(4AP)2]Cl2], the “redox potential of the couple R^III/R^II” value [2] was 0.76 V, the “time without dark decomposition” value ([3]; in the dark) was “more than 20 hours” and the 4AP recombination ([3]; irradiated solution, after 7 hours in the dark) was “less than 4%”. For the same compound, the “stability in the dark” value ([3]; water) was “stable in the dark”, the “toxicity on the neuron” value ([1]; during the experiments) was “Neither toxicity nor a deleterious effect was observed” and the “neuron spiking activity on addition, before light” value [1] was “the activity remained unchanged”. The “neuron spiking activity after light flash” value ([1]; ˜100 μM) was “sudden activity was recorded and it remained high after 300 s”, the “neuron spiking activity after second light pulse” value ([1]; ˜100 μM, second light pulse at 6750 s) was “even higher activity” and the “extent of photoreaction (NMR signal integration)” value ([4]; after irradiation with visible light) was 60%. For the same compound, the “photoreaction yield φPR” value ([4]; at 473 nm, estimate based on early experiments) was about 0.02.
With `CC#N.Nc1ccncc1.[Ru+2].c1ccc(-c2ccccn2)nc1.c1ccc(-c2ccccn2)nc1` [[Ru(bpy)2(4AP)CH3CN]^2+] the “photoreaction yield φPR” value [4] was about 0.4.
For `CP(C)C.CS[C@@H]1O[C@H](CO)[C@H](O)[C@H](O)[C@H]1O.[Ru+2].c1ccc(-c2ccccn2)nc1.c1ccc(-c2ccccn2)nc1` [[Ru(bpy)2(PMe3)(MTG)]^+2], the “time until blue precipitate is noticed” value (E. coli culture) was about 40 min and the photolysis quantum yield [5] was 0.3.
With `CCN(CC)c1ccc2c(-c3ccccc3C(=O)N(C)CCC#N)c3ccc(=[N+](CC)CC)cc-3oc2c1.[Cl][Ru+].c1ccc(-c2ccccn2)nc1.c1ccc(-c2ccccn2)nc1` [[Ru(bpy)2(RhodB-MAPN)Cl]^+] the increase of fluorescence ([6]; after blue light (473 nm) irradiation) was “up to 6 fold”, the emission quantum yield ([6]; after irradiation with a 473 nm laser) was 0.24 and the emission quantum yield ([6]; aqueous, before irradiation) was about 0.04. The “photouncaging quantum yield φPU” value ([7]; 473 nm, 25° C.) was 0.12.
In the case of `C=CCC#N.[Cl][Ru+].c1ccc(-c2ccccn2)nc1.c1ccc(-c2ccccn2)nc1` [[Ru(bpy)2(VACN)Cl]^+], the “photouncaging quantum yield φPU (VACN release)” value [7] is reported as 0.21.
For [Ru(bpy)2(TzGly)(py)]Cl2, the photorelease on irradiation [8] was “photoreleased TzGly”.
